Measured values from patent US20160074380A1, “Treatment Of Neurodegenerative Diseases With Combination Of Laquinimod And Fingolimod” (TEVA PHARMACEUTICAL INDUSTRIES LTD., priority 2014, published 2016).
Like-named read-outs stand apart in the source and are kept apart here.

Assays:
reactive astrocytes [1] = experiment: IL-6 concentration in conditioned media from reactive astrocytes (cytometry); assay type: cell-based, mice; conditions: LPS+IFNγ
Experimental: (§1) Mice mixed glial cells were cultured as described by McCarthy et al., 1980. Primary mice glial cells were prepared from the cortical of newborn Swiss mice (1 day). Briefly, meninges and blood vessels of the mice cortex were removed and placed in ice-cold medium of L15 containing 2% of PS and 1% of BSA. Tissues were dissociated with 0.25% trypsin-EDTA at 37° C. for 10 min. Cells were then submitted to a supplementary incubation of 15 min at 37° C. in presence of deoxyribonuclease I (final concentration of 0.5 mg/mL). Cells were then pelleted (5 min at 1200 rpm) and trypsinization was stopped by adding DMEM supplemented with 10% FCS, 1 mM of Na/pyruvate (PanBiotech, ref: P04-43100, batch: 3470914) and 2% PS. Cells suspension was mechanically dissociated and filtered through 40 μm diameter nylon meshes (BD Falcon, Ref: 352340). The cells were collected by centrifugation at 1200 rpm/min for 10 min, re-suspended in culture medium and then plated in culture flasks (Dutscher, ref: 690175). Cells were seeded at a density of 1.25×10^5 cells/cm2 and cultured in 5% CO2 at 37° C. Medium was changed three times per week.
(§2) Purification of astrocytes cells was done as described by Kim et al., 2006. After 14 days, the flasks were shaken on a rotary shaker at 200 rpm for 3 h. The resulting cell suspension rich in microglia was removed. Cells remaining in the flasks from which microglia had been harvested correspond to astrocytes at a purity of about 90%. Astrocytes were cultured in DMEM supplemented with 10% FCS, 1 mM of Na/pyruvate and 2% at 5% CO2 and 37° C. in flasks of 25 cm2.
(§3) When reaching confluence, primary astroglial cells were first incubated for 2 hours with Fingolimod (1 nM, 10 nM) or Laquinimod (1 nM, 10 nM, 100 nM, 1 μM, 10 μM) alone or in co-incubation or control medium.
(§4) At the end of 2 hours treatment with test compounds, astrocyte culture was activated with serum-free DMEM containing LPS (100 ng/mL; Sigma, Serotype 026:B6, ref: L2654; batch: 123M4052V) and IFNγ (10 ng/mL; Peprotech; ref: 315-05; batch: 061398 L0513) for 6 hours (Kim and Lee, 2013; Shu et al., 2014; Gresa-Arribas et al., 2012) in absence or presence of test compounds.
(§5) To obtain LPS/INFγ free conditioned media (CM), after 6 hours, cells were washed twice with DMEM and medium was replaced with DMEM supplemented with B27 (2%), L-glutamine (2 mM), PS solution (2%). LCM was collected 24 hrs after. For control, cells were incubated with medium not containing LPS/INFγ. […]

reactive astrocytes [2] = experiment: IL-12p70 concentration in conditioned media from reactive astrocytes (cytometry); assay type: cell-based, mice; conditions: LPS+IFNγ
Experimental: as §1, §2, §3, §4, §5

mouse primary microglia = experiment: Pro-inflammatory cytokine production in mouse primary microglia; assay type: cell-based
[3] = system: peripheral lymphocyte counts; experiment: Peripheral lymphocyte counts with fingolimod; assay type: in vivo; conditions: S1P receptor-mediated
cuprizone model [4] = conditions: Slovic, 2012, Kim, 2011; cited from earlier work
lysolecithin model [5] = conditions: Hu, 2011; cited from earlier work
oligodendrocytes [6] = conditions: inflammatory insults; Rochelle, 2007; cited from earlier work
[7] = system: mouse-cultured cortical cells; conditions: pretreatment; Di Menna, 2013; cited from earlier work
[8] = DA EAE rats, doses 0.03-0.3 mg/kg; Foster, 2007; cited from earlier work
cuprizone model [9] = experiment: Demyelination and re-myelination in the cuprizone model; assay type: in vivo
lysolecithin model [10] = experiment: Lysolecithin-induced demyelination model; assay type: in vivo
established EAE = experiment: Established EAE; assay type: in vivo
oligodendrocytes [11] = experiment: Oligodendrocyte survival under inflammatory insults; assay type: cell-based
human microglia = experiment: Human microglia activation in culture (LPS); assay type: cell-based
Source text: (§6) In another study, laquinimod reduced microglial activation in culture. The size of CD14 stained human microglia was increased with LPS activation. Also, in FIG. 13, human (C) or mouse (D) microglia elevated TNF-α secretion upon LPS activation, which was attenuated by laquinimod.

mouse microglia = experiment: Mouse microglia TNF-α secretion upon LPS activation; assay type: cell-based
Source text: as §6

microglia/macrophages = experiment: Microglial activation in EAE-afflicted mice; assay type: in vivo; conditions: spinal cord of EAE-afflicted mice
Source text: Laquinimod inhibited microglial activation in EAE in mice. Transcripts encoding markers of activation of microglia/macrophages were increased in the spinal cord of EAE-afflicted mice and decreased in laquinimod-treated animals, as presented in FIG. 15.

lymphocyte counts = experiment: Lymphocyte counts over time with laquinimod versus placebo; assay type: in vivo; conditions: laquinimod 0.6 mg group vs placebo or baseline, all visits
[12] = Penetration of intact and disrupted Blood Brain Barrier; assay type: in vivo, mice; conditions: for Kp: mouse, CNS tissue relative to blood, read-out: CNS tissue level, % of the blood concentration
Source text: In another study, laquinimod, as a small molecule, penetrated both intact and disrupted Blood Brain Barrier (BBB). In view of FIG. 17, CNS tissue level of laquinimod was 7-8% of the blood concentration in healthy mice and 13% in EAE mice when the BBB was disrupted. Further, 90% of the drug in cerebrospinal fluid (CSF) was active, or free, due to low protein binding and expected also in brain interstitial fluids. Thus, laquinimod targeted the entire brain and not only the lesions.

[13] = Mus musculus, Astrocyte, 1 nM, read-out: % inhibition of IL-6 release
[14] = Mus musculus, Astrocyte, 10 nM, read-out: % inhibition of IL-6 release
[15] = Mus musculus, Astrocyte, 1 nM, read-out: % inhibition of IL-12p70 release
[16] = Mus musculus, Astrocyte, 10 nM, read-out: % inhibition of IL-12p70 release

CCCCCCCCc1ccc(CCC(N)(CO)CO)cc1 [Fingolimod]
IL-6 content (reactive astrocytes [1]; 1 nM): 5421 pg/mL | IL-6 content (reactive astrocytes [1]; 10 nM): 4744 pg/mL | inhibition at 0.001 µM (reactive astrocytes [1]; [13]): 23.3% | inhibition at 0.01 µM (reactive astrocytes [1]; [14]): 32.9% | IL-12p70 content (reactive astrocytes [2]; 1 nM): 6.15 pg/mL | IL-12p70 content (reactive astrocytes [2]; 10 nM): 4.25 pg/mL | inhibition at 0.001 µM (reactive astrocytes [2]; [15]): 38.1% | inhibition at 0.01 µM (reactive astrocytes [2]; [16]): 57.2% | microglial production of pro-inflammatory cytokine (mouse primary microglia): inhibited | lymphocyte count reduction [3]: dose dependent | re-myelination (cuprizone model [4]): not conclusive | re-myelination (lysolecithin model [5]): lack of any effect | oligodendrocyte survival (oligodendrocytes [6]): did protect oligodendrocytes | protection of neurons against NMDA toxicity [7]: protected neurons against NMDA toxicity | brain/blood ratio [8]: about 20

CCN(C(=O)c1c(O)c2c(Cl)cccc2n(C)c1=O)c1ccccc1 [Laquinimod]
IL-6 content (reactive astrocytes [1]; 1 nM): 6198 pg/mL | IL-6 content (reactive astrocytes [1]; 10 nM): 6315 pg/mL | IL-6 content (reactive astrocytes [1]; 1 μM): 2640 pg/mL | inhibition at 0.001 µM (reactive astrocytes [1]; [13]): 12.3% | inhibition at 0.01 µM (reactive astrocytes [1]; [14]): 10.6% | inhibition at 1 µM (reactive astrocytes [1]; Mus musculus, Astrocyte, 1 μM, read-out: % inhibition of IL-6 release): 62.6% | IL-12p70 content (reactive astrocytes [2]; 1 nM): 6.53 pg/mL | IL-12p70 content (reactive astrocytes [2]; 10 nM): 6.29 pg/mL | IL-12p70 content (reactive astrocytes [2]; 100 nM): 3.84 pg/mL | IL-12p70 content (reactive astrocytes [2]; 1 μM): 2.55 pg/mL | inhibition at 0.001 µM (reactive astrocytes [2]; [15]): 34.3% | inhibition at 0.01 µM (reactive astrocytes [2]; [16]): 36.7% | inhibition at 0.1 µM (reactive astrocytes [2]; Mus musculus, Astrocyte, 100 nM, read-out: % inhibition of IL-12p70 release): 61.4% | inhibition at 1 µM (reactive astrocytes [2]; Mus musculus, Astrocyte, 1 μM, read-out: % inhibition of IL-12p70 release): 74.3% | re-myelination (cuprizone model [9]; after cuprizone withdrawal): no effect | demyelination (cuprizone model [9]; cuprizone model (non-T cell model of demyelination)): significantly less demyelination | lysolecithin-induced demyelination (lysolecithin model [10]): no effect | clinical disease (established EAE): ameliorates clinical disease | expansion of pre-existing lesions (established EAE): inhibits further expansion of pre-existing lesions | oligodendrocyte survival (oligodendrocytes [11]): does not protect oligodendrocytes | size of CD14 stained human microglia (human microglia; LPS activation): reduced | microglial production of pro-inflammatory cytokine (human microglia; human microglia): inhibited | TNF-α secretion (human microglia; human microglia, LPS activation): attenuated | TNF-α secretion (mouse microglia): attenuated | transcripts encoding markers of activation of microglia/macrophages (microglia/macrophages): decreased | lymphocyte counts (lymphocyte counts): remained stable | active, or free, drug in cerebrospinal fluid (CSF) ([12]; low protein binding): 90% | Kp ([12]; EAE mice, BBB disrupted): 0.13 | Kp ([12]; healthy mice): 0.07 to 0.08
